Active and inactive are the calls of the source. The rule behind the calls is not given here.
Columns and labels:
HBMSC [1] = experiment: Induction of cell cycle arrest in human BMSCs overexpressing miR-124-3p.1 assessed as decrease in cells at G0/G1 phase at 160 mg/ml under osteogenic conditions by PI staining based flow cytometric analysis; format: functional
HBMSC [2] = experiment: Induction of osteogenic differentiation in human BMSCs overexpressing miR-124-3p.1 assessed as increase in osteogenic medium-induced OCN protein expression level at 160 mg/ml by Western blot analysis; format: functional
HBMSC [3] = experiment: Induction of osteogenic differentiation in human BMSCs assessed as increase in cell viability incubated for 72 hrs under osteogenic conditions by MTT assay; format: functional, tissue-based; conditions: dose 80-320 mg/ml
HBMSC [4] = experiment: Induction of osteogenic differentiation in human BMSCs assessed as increase in osteogenic medium-induced matrix mineralization by measuring calcium deposition by Alizarin Red S staining-based microscopic analysis; format: functional, tissue-based; conditions: dose 80-320 mg/ml
HBMSC [5] = experiment: Induction of cell cycle arrest in human BMSCs assessed as accumulation of cells at S phase under osteogenic conditions by PI staining based flow cytometric analysis; format: functional, tissue-based; conditions: dose 80-320 mg/ml
Rattus norvegicus [6] = experiment: Induction of tibial bone defect regeneration in ip dosed Lewis rat assessed as reduction in […] mRNA expression level administered for 10 consecutive days by RT-qPCR analysis; format: functional, organism-based; conditions: dose 0.16-4 g/Kg, time 10.0 day
HBMSC [7] = experiment: Induction of osteogenic differentiation in human BMSCs assessed as increase in osteogenic medium-induced OCN protein expression level by Western blot analysis; format: functional, tissue-based; conditions: dose 80-320 mg/ml
Rattus norvegicus [8] = experiment: Induction of tibial bone defect regeneration in ip dosed Lewis rat assessed as decrease in Tb.Sp of tibial bone administered for 10 consecutive days by microcomputed tomography method; format: functional, organism-based; conditions: dose 0.16-4 g/Kg, time 10.0 day
HBMSC [9] = experiment: Induction of cell cycle arrest in human BMSCs overexpressing miR-124-3p.1 assessed as accumulation of cells at S phase at 160 mg/ml under osteogenic conditions by PI staining based flow cytometric analysis; format: functional, tissue-based
Rattus norvegicus [10] = experiment: Induction of tibial bone defect regeneration in ip dosed Lewis rat assessed as alleviation of bone injury administered for 10 consecutive days by HE staining based assay; format: functional, organism-based; conditions: dose 0.16-4 g/Kg, time 10.0 day
Rattus norvegicus [11] = experiment: Induction of tibial bone defect regeneration in ip dosed Lewis rat assessed as […] in STAT3 mRNA expression level administered for 10 consecutive days by RT-qPCR analysis; format: functional, organism-based; conditions: dose 0.16-4 g/Kg, time 10.0 day
HBMSC [12] = experiment: Induction of osteogenic differentiation in human BMSCs overexpressing miR-124-3p.1 assessed as increase in osteogenic medium-induced RUNX2 protein expression level at 160 mg/ml by Western blot analysis; format: functional, tissue-based
HBMSC [13] = experiment: Induction of osteogenic differentiation in human BMSCs overexpressing miR-124-3p.1 assessed as increase in alkaline phosphatase activity at 160 mg/ml incubated for 21 days under osteogenic conditions by ELISA; format: functional, tissue-based; conditions: time 21.0 day
HBMSC [14] = experiment: Induction of osteogenic differentiation in human BMSCs overexpressing miR-124-3p.1 assessed as increase in osteogenic medium-induced Smad4 mRNA expression level at 160 mg/ml by RT-qPCR analysis; format: functional, tissue-based
Rattus norvegicus [15] = experiment: Induction of tibial bone defect regeneration in ip dosed Lewis rat assessed as increase in BMD of tibial bone administered for 10 consecutive days by microcomputed tomography method; format: functional, organism-based; conditions: dose 0.16-4 g/Kg, time 10.0 day
Rattus norvegicus [16] = experiment: Induction of tibial bone defect regeneration in ip dosed Lewis rat assessed as increase in Conn.D of tibial bone administered for 10 consecutive days by microcomputed tomography method; format: functional, organism-based; conditions: dose 0.16-4 g/Kg, time 10.0 day
Rattus norvegicus [17] = experiment: Induction of tibial bone defect regeneration in ip dosed Lewis rat assessed as increase in Tb.N of tibial bone administered for 10 consecutive days by microcomputed tomography method; format: functional, organism-based; conditions: dose 0.16-4 g/Kg, time 10.0 day
HBMSC [18] = experiment: Induction of osteogenic differentiation in human BMSCs assessed as increase in alkaline phosphatase activity incubated for 21 days under osteogenic conditions by ELISA; format: functional, tissue-based; conditions: dose 80-320 mg/ml, time 21.0 day
HBMSC [19] = experiment: Induction of cell cycle arrest in human BMSCs overexpressing miR-124-3p.1 assessed as accumulation of cells at G2/M phase at 160 mg/ml under osteogenic conditions by PI staining based flow cytometric analysis; format: functional, tissue-based
HBMSC [20] = experiment: Induction of osteogenic differentiation in human BMSCs overexpressing miR-124-3p.1 assessed as increase in osteogenic medium-induced OCN mRNA expression level at 160 mg/ml by RT-qPCR analysis; format: functional, tissue-based
HBMSC [21] = experiment: Induction of osteogenic differentiation in human BMSCs overexpressing miR-124-3p.1 assessed as increase in osteogenic medium-induced RUNX2 mRNA expression level at 160 mg/ml by RT-qPCR analysis; format: functional, tissue-based
Rattus norvegicus [22] = experiment: Induction of tibial bone defect regeneration in ip dosed Lewis rat assessed as increase in Tb.Th of tibial bone administered for 10 consecutive days by microcomputed tomography method; format: functional, organism-based; conditions: dose 0.16-4 g/Kg, time 10.0 day
HBMSC [23] = experiment: Induction of osteogenic differentiation in human BMSCs assessed as increase in osteogenic medium-induced Smad4 mRNA expression level by RT-qPCR analysis; format: functional, tissue-based; conditions: dose 80-320 mg/ml
HBMSC [24] = experiment: Induction of cell cycle arrest in human BMSCs assessed as decrease in cells at G0/G1 phase under osteogenic conditions by PI staining based flow cytometric analysis; format: functional; conditions: dose 80-320 mg/ml
HBMSC [25] = experiment: Induction of osteogenic differentiation in human BMSCs overexpressing miR-124-3p.1 assessed as increase in cell viability at 160 mg/ml incubated for 72 hrs under osteogenic conditions by MTT assay; format: functional, tissue-based
HBMSC [26] = experiment: Induction of osteogenic differentiation in human BMSCs assessed as down regulation of miR-124-3p.1 mRNA expression level at 160 mg/ml under osteogenic condition by RT-qPCR analysis; format: functional, tissue-based
Rattus norvegicus [27] = experiment: Induction of tibial bone defect regeneration in ip dosed Lewis rat assessed as increase in BV/TV of tibial bone administered for 10 consecutive days by microcomputed tomography method; format: functional, organism-based; conditions: dose 0.16-4 g/Kg, time 10.0 day
HBMSC [28] = experiment: Induction of osteogenic differentiation in human BMSCs overexpressing miR-124-3p.1 assessed as increase in osteogenic medium-induced matrix mineralization by measuring calcium deposition at 160 mg/ml by Alizarin Red S staining-based microscopic analysis; format: functional, tissue-based
HBMSC [29] = experiment: Induction of osteogenic differentiation in human BMSCs assessed as increase in osteogenic medium-induced RUNX2 mRNA expression level by RT-qPCR analysis; format: functional, tissue-based
HBMSC [30] = experiment: Induction of osteogenic differentiation in human BMSCs overexpressing miR-124-3p.1 assessed as increase in osteogenic medium-induced Smad4 protein expression level at 160 mg/ml by Western blot analysis; format: functional, tissue-based
HBMSC [31] = experiment: Induction of osteogenic differentiation in human BMSCs assessed as increase in osteogenic medium-induced RUNX2 protein expression level by Western blot analysis; format: functional, tissue-based; conditions: dose 80-320 mg/ml
HBMSC [32] = experiment: Induction of cell cycle arrest in human BMSCs assessed as accumulation of cells at G2/M phase under osteogenic conditions by PI staining based flow cytometric analysis; format: functional, tissue-based; conditions: dose 80-320 mg/ml
HBMSC [33] = experiment: Induction of osteogenic differentiation in human BMSCs assessed as increase in osteogenic medium-induced OCN mRNA expression level by RT-qPCR analysis; format: functional, tissue-based; conditions: dose 80-320 mg/ml
HBMSC [34] = experiment: Induction of osteogenic differentiation in human BMSCs assessed as increase in osteogenic medium-induced Smad4 protein expression level by Western blot analysis; format: functional, tissue-based; conditions: dose 80-320 mg/ml
Rattus norvegicus [35] = experiment: Induction of tibial bone defect regeneration in ip dosed Lewis rat assessed as […] in STAT3 protein expression level administered for 10 consecutive days by Western blotting analysis; format: functional, organism-based; conditions: dose 0.16-4 g/Kg, time 10.0 day

CC(C)(O)[C@@H]1CC[C@](C)([C@H]2[C@@H](O)C[C@@]3(C)[C@@H]4C[C@H](O[C@@H]5O[C@H](CO)[C@@H](O)[C@H](O)[C@H]5O)[C@H]5C(C)(C)[C@@H](O[C@@H]6OC[C@@H](O)[C@H](O)[C@H]6O)CC[C@@]56C[C@@]46CC[C@]23C)O1 was tested, and the Activity (HBMSC [1]) was “inactive”, the Activity (HBMSC [2]) was “inactive” and the Activity (HBMSC [3]) was “Dose-Dependent Effect”. The Activity (HBMSC [4]) was “Dose-Dependent Effect”, the Activity (HBMSC [5]) was “Dose-Dependent Effect” and the Activity (Rattus norvegicus [6]) was “Dose-Dependent Effect”. The Activity (HBMSC [7]) was “Dose-Dependent Effect”, the Activity (Rattus norvegicus [8]) was “Dose-Dependent Effect” and the Activity (HBMSC [9]) was “inactive”. The Activity (Rattus norvegicus [10]) was “Dose-Dependent Effect”, the Activity (Rattus norvegicus [11]) was “Dose-Dependent Effect” and the Activity (HBMSC [12]) was “inactive”. The Activity (HBMSC [13]) was “inactive”, the Activity (HBMSC [14]) was “inactive” and the Activity (Rattus norvegicus [15]) was “Dose-Dependent Effect”. The Activity (Rattus norvegicus [16]) was “Dose-Dependent Effect”, the Activity (Rattus norvegicus [17]) was “Dose-Dependent Effect” and the Activity (HBMSC [18]) was “Dose-Dependent Effect”. For the same molecule, the Activity (HBMSC [19]) was “inactive”, the Activity (HBMSC [20]) was “inactive” and the Activity (HBMSC [21]) was “inactive”. The Activity (Rattus norvegicus [22]) was “Dose-Dependent Effect”, the Activity (HBMSC [23]) was “Dose-Dependent Effect” and the Activity (HBMSC [24]) was “Dose-Dependent Effect”. The Activity (HBMSC [25]) was “inactive”, the Activity (HBMSC [26]) was “Active” and the Activity (Rattus norvegicus [27]) was “Dose-Dependent Effect”. For the same molecule, the Activity (HBMSC [28]) was “inactive”, the Activity (HBMSC [29]) was “Dose-Dependent Effect” and the Activity (HBMSC [30]) was “inactive”. For the same molecule, the Activity (HBMSC [31]) was “Dose-Dependent Effect”, the Activity (HBMSC [32]) was “Dose-Dependent Effect” and the Activity (HBMSC [33]) was “Dose-Dependent Effect”. The Activity (HBMSC [34]) was “Dose-Dependent Effect” and the Activity (Rattus norvegicus [35]) was “Dose-Dependent Effect”.

— ChEMBL document CHEMBL4813938, “Astragaloside IV Improves Tibial Defect in Rats and Promotes Proliferation and Osteogenic Differentiation of hBMSCs through MiR-124-3p.1/STAT3 Axis” (J Nat Prod, 2021)
